The text below walks through data of ChEMBL document CHEMBL1201862, “PubChem BioAssay data set” (2004).

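A five-concentration, 48-hour dose response in 96-well plates underlies each endpoint, interpolated linearly between surrounding concentrations. GI50: concentration for 50% inhibition of growth.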 Activity calls are given as the source filed them. Cut-off read from the data, not from the text of the source: active = GI50 up to about 1.1 µM and inactive = higher.

What all share (test): inhibition of tumour cell growth, NCI panel, 48 h
Experiment [1] relates to DLD-1.
Experiment [2] deals with DMS-114.
Experiment [3] concerns DMS-273.
In experiment [4] the test system is HOP-18.
The subject of experiment [5] is KM-20L2.
The subject of experiment [6] is LXFL 529.
Experiment [7] concerns RXF 631.
Experiment [8] deals with XF498.
The test system of experiment [9] is M19-MEL.

Regarding `O=C1NC(=O)C2C(=O)NC(=O)C1C2c1c(Cl)cccc1Cl` (stereo unspecified), the GI50 in [1] was > 43.3 µM (inactive); in [2] it was > 38.4 µM (inactive); in [3] it was > 42.7 µM (inactive); in experiment [4] it was > 100 µM (inactive); in [5], > 49.5 µM (inactive); in [6], > 100 µM (inactive). Besides, the GI50 in [7] and in experiment [8] was > 100 µM (inactive) each time.

In the case of `CCC(=O)C(C)C1=Nc2nnc(CCCCCCCc3nnc4n3C(=O)C(C(C)C(=O)CC)=N4)n2C1=O` (stereo unspecified), the GI50 in experiment [2], in experiment [4], in [5], in [6], in [9] and in experiment [8] was > 100 µM (inactive) throughout.

Consider `COC1(OC)CC2C(=O)N(Cc3ccccc3)C1C(S(=O)(=O)c1ccccc1)C2S(=O)(=O)c1ccccc1` (stereo unspecified), for which the GI50 is 3.52 µM (inactive) in experiment [1]; 3.7 µM (inactive) in [2]; 14.6 µM (inactive) in experiment [3]; 17.2 µM (inactive) in experiment [4]; 17.4 µM (inactive) in experiment [5]; 3.48 µM (inactive) in experiment [6]. Besides, the GI50 in experiment [9] was 11.1 µM (inactive); in experiment [7], 16.7 µM (inactive).

Consider `NC1=C(O)c2cccc3cccc(c23)C1=O`, for which the GI50 in experiment [1], in experiment [2], in experiment [3], in [4], in experiment [5] and in [6] was > 100 µM (inactive) each time. Besides, the GI50 in experiment [9] and in [7] was > 100 µM (inactive) in each case.

Turning to `Cc1cccc(N2C(=O)C(=O)C(c3nc4ccccc4s3)C(=O)C2=O)c1C`, the GI50 in experiment [1], in experiment [2], in [3], in [4], in experiment [5] and in experiment [6] was > 100 µM (inactive) throughout. The GI50 in experiment [9] and in [7] was > 100 µM (inactive) throughout.

Take `CC(=O)/C(=N\O)C(=O)Nc1ccc(Cl)cc1Cl`: the GI50 in experiment [1] was > 100 µM (inactive); in experiment [2], > 100 µM (inactive); in experiment [3] it was > 100 µM (inactive); in experiment [4] it was 43.1 µM (inactive); in [5] it was > 100 µM (inactive); in experiment [6], > 100 µM (inactive). Further, the GI50 in experiment [9] was > 100 µM (inactive).

With `CC1(C)CC(c2c[nH]c3ccccc23)=CC2=Nc3ccccc3C21O` (stereo unspecified), the GI50 is > 100 µM (inactive) in [1]; > 100 µM (inactive) in [2]; > 100 µM (inactive) in experiment [3]; > 100 µM (inactive) in [5]; 47.4 µM (inactive) in experiment [6]; > 100 µM (inactive) in [9]. In addition, the GI50 in experiment [8] was 29.2 µM (inactive).

On to `O=C(Nc1ccccc1)Oc1ccccc1C1CCCCC1`, for which the GI50 in experiment [1] is 13.9 µM (inactive); in experiment [2], 12 µM (inactive); in experiment [3] it was 15.2 µM (inactive); in experiment [4], 29.3 µM (inactive); in experiment [6], 22.5 µM (inactive); in [9] it was 16 µM (inactive). Further, in [8], the GI50 is 19 µM (inactive).

Take `Cc1c(C(=O)C/C(=N/NC(=O)c2ccccc2O)C(=O)Nc2ccccc2C(C)C)[n+]([O-])c2ccccc2[n+]1[O-]`: the GI50 in experiment [1] is 31.8 µM (inactive); in experiment [2] it was 23.1 µM (inactive); in experiment [3], 31.8 µM (inactive); in experiment [4] it was > 100 µM (inactive); in experiment [5] it was 39.7 µM (inactive); in experiment [6], 25.1 µM (inactive). The GI50 in experiment [9] is 46.5 µM (inactive); in experiment [8] it was > 100 µM (inactive).

Take `CCCCCCCCCCC(=O)CCCCCCC(=O)O`: the GI50 in experiment [1] was 19 µM (inactive); in experiment [2] it was 20.3 µM (inactive); in experiment [3], 19.3 µM (inactive); in experiment [4] it was 16.9 µM (inactive); in [6] it was 18.2 µM (inactive); in [9], 27 µM (inactive). Moreover, the figures for the GI50 in experiment [7] and in experiment [8] were 19.9 µM (inactive) and 24.3 µM (inactive), respectively.

As for `COc1cc([C@@H]2c3cc4c(cc3[C@@H](NC(=O)c3ccc(OC(C)=O)cc3)C3COC(=O)[C@@H]32)OCO4)cc(OC)c1O` (stereo partly specified), the GI50 in experiment [1] is 2.96 µM (inactive); in experiment [2], 1.2 µM (inactive); in [3], 0.359 µM (active); in [4] it was > 100 µM (inactive); in [5] it was 2.13 µM (inactive); in experiment [6] it was 9.62 µM (inactive). Besides, the GI50 in [9] was 8.71 µM (inactive); in [7], 1.76 µM (inactive); in experiment [8] it was 0.813 µM (active).

Regarding `C[C@H](NS(=O)(=O)c1ccc(NC(=O)c2ccccc2)cc1)C(=O)O`, the GI50 in experiment [1], in experiment [3], in [4], in experiment [5], in experiment [6] and in [9] was > 100 µM (inactive) throughout. The GI50 in [8] was > 100 µM (inactive).

Regarding `CN(C)CC1CCCC/C1=N\OC(=O)c1ccccc1` (stereo unspecified), the GI50 in [1], in experiment [2], in [3], in experiment [4], in experiment [5] and in experiment [6] was > 100 µM (inactive) each time. In addition, the GI50 in experiment [9], in [7] and in experiment [8] was > 100 µM (inactive) in each case.

Take `O=C1C(CN2CCCCC2)CCCC1CN1CCCCC1` (stereo unspecified): the GI50 in [1] was 10.1 µM (inactive); in experiment [3], 43.2 µM (inactive); in [4], 17.2 µM (inactive); in [5] it was 14.4 µM (inactive); in experiment [6], 15 µM (inactive); in experiment [8], 21.2 µM (inactive).

In the case of `CCC1CNC(=O)CC1CC(=O)OC` (stereo unspecified), the GI50 in experiment [2] and in experiment [5] was > 100 µM (inactive) in each case.

With `COc1cc2cc3c4cc(OC)c(OC)cc4cc[n+]3c(C)c2cc1OC.O=C([O-])CS(=O)(=O)O`, the GI50 was > 100 µM (inactive) in experiment [1]; 3.34 µM (inactive) in experiment [2]; 63.8 µM (inactive) in experiment [3]; > 100 µM (inactive) in experiment [4]; > 100 µM (inactive) in experiment [5]; 10.8 µM (inactive) in experiment [6]. Moreover, the values for the GI50 in experiment [9] and in [8] were 69 µM (inactive) and 36.4 µM (inactive), respectively.

`c1ccc2c(CNCCCCCCCCCCCCNCc3cccc4ccccc34)cccc2c1`: the GI50 was 1.6 µM (inactive) in [1]; 91.8 µM (inactive) in [3]; 2.84 µM (inactive) in [4]; 1.84 µM (inactive) in experiment [5]; 1.83 µM (inactive) in [6]; 1.81 µM (inactive) in experiment [9]. Besides, the GI50 in experiment [8] was 1.69 µM (inactive).

Regarding `COc1cc(CO)cc2c1[nH]c1ccccc12` [KOENOLINE], the GI50 in [1], in experiment [2], in experiment [3], in experiment [4], in experiment [5] and in experiment [6] was > 25 µM (inactive) throughout. Further, the GI50 in experiment [9] and in [8] was > 25 µM (inactive) throughout.
